Measured values as given in patent publication US10604524B2, “Pyrropyrimidine compounds as MNKs inhibitors” (LIFEARC, priority 2015, dated 2020).

What was measured:
MKNK2 = MKNK2 (Homo sapiens, UniProt Q9HBH9); experiment: Kinase selectivity screen; type: biochemical; conditions: 1 μM compound
PTK2 = PTK2 (Homo sapiens, UniProt Q05397); experiment: Kinase selectivity screen; conditions: read-out: % Inhibition PTK2
PTK6 = PTK6 (Homo sapiens, UniProt Q13882); experiment: Kinase selectivity screen; conditions: read-out: % Inhibition PTK6
RPS6KA1 = RPS6KA1 (Homo sapiens, UniProt Q15418); experiment: Kinase selectivity screen; conditions: read-out: % Inhibition RPS6KA1
MAP3K9 = MAP3K9 (Homo sapiens, UniProt P80192); experiment: Kinase selectivity screen; conditions: read-out: % Inhibition MAP3K9
PIK3CB = PIK3CB (Homo sapiens, UniProt P42338); experiment: Kinase selectivity screen; conditions: read-out: % Inhibition PIK3CB
PIK3CD = PIK3CD (Homo sapiens, UniProt O00329); experiment: Kinase selectivity screen; conditions: read-out: % Inhibition PIK3CD
PIK3CD, sequence (O00329 whole entry, species assumed): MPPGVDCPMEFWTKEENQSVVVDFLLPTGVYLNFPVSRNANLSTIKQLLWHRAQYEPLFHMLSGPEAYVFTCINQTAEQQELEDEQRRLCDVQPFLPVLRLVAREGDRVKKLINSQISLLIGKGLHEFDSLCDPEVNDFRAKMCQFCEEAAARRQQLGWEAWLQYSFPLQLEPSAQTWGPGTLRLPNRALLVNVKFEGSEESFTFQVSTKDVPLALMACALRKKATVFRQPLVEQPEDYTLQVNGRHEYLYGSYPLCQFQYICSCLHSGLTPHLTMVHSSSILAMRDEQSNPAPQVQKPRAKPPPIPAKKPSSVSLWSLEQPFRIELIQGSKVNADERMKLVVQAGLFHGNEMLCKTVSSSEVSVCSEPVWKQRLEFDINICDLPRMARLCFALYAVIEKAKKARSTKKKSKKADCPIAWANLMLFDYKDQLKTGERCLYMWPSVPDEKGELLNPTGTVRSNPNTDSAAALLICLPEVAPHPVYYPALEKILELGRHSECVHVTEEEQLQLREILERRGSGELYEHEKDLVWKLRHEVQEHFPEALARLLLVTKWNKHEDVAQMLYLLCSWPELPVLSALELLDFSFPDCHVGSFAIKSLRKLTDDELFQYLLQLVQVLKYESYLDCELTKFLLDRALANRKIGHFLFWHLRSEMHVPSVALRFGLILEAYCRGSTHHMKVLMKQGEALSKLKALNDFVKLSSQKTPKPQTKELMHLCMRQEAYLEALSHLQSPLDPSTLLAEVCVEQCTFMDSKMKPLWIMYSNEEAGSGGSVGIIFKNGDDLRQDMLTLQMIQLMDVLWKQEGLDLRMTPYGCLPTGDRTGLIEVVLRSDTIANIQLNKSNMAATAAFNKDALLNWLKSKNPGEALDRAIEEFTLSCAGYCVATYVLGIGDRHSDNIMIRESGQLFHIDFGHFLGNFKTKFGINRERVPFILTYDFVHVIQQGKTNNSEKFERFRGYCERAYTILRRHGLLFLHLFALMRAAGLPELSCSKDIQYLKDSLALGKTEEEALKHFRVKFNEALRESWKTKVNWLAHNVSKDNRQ
PIK3CD, sequence (P27986 whole entry partner, species assumed): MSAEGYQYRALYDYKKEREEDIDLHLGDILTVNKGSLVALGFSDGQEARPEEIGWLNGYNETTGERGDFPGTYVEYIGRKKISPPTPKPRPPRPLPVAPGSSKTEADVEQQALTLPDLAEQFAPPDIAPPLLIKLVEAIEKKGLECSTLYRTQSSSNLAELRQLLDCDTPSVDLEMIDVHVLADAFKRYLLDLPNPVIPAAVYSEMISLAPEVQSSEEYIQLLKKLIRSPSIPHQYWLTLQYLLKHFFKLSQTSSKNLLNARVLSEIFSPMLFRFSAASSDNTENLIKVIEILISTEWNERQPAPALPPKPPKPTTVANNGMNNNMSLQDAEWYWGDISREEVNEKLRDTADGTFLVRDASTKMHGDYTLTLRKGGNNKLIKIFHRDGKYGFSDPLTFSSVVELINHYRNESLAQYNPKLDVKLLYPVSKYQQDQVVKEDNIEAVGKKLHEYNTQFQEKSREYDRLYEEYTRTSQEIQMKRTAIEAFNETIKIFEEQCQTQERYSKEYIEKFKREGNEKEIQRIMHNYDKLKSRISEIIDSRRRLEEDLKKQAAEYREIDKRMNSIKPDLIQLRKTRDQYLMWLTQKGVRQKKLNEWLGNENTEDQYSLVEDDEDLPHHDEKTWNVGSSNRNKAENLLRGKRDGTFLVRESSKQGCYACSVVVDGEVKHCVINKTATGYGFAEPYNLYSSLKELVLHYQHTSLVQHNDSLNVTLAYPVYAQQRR

ULK2 = ULK2 (Homo sapiens, UniProt Q8IYT8); experiment: Kinase selectivity screen; conditions: read-out: % Inhibition ULK2
ABL2 = ABL2 (Homo sapiens, UniProt P42684); experiment: Kinase selectivity screen; conditions: read-out: % Inhibition ABL2
INSR = INSR (Homo sapiens, UniProt P06213); experiment: Kinase selectivity screen; conditions: read-out: % Inhibition INSR
DMPK = DMPK (Homo sapiens, UniProt Q09013); experiment: Kinase selectivity screen; conditions: read-out: % Inhibition DMPK
IKBKB = IKBKB (Homo sapiens, UniProt O14920); experiment: Kinase selectivity screen; conditions: read-out: % Inhibition IKBKB
CAMK2B = CAMK2B (Homo sapiens, UniProt Q13554); experiment: Kinase selectivity screen; conditions: read-out: % Inhibition CAMK2B
JAK2 = JAK2 (Homo sapiens, UniProt O60674); experiment: Kinase selectivity screen; conditions: read-out: % Inhibition JAK2
LYN = LYN (Homo sapiens, UniProt P07948); experiment: Kinase selectivity screen; conditions: read-out: % Inhibition LYN
MAPKAPK2 = MAPKAPK2 (Homo sapiens, UniProt P49137); experiment: Kinase selectivity screen; conditions: read-out: % Inhibition MAPKAPK2
MAP3K7 = MAP3K7 (Homo sapiens, UniProt O43318); experiment: Kinase selectivity screen; conditions: read-out: % Inhibition MAP3K7
MAP3K7, sequence (O43318 1-303 limits assumed, species assumed): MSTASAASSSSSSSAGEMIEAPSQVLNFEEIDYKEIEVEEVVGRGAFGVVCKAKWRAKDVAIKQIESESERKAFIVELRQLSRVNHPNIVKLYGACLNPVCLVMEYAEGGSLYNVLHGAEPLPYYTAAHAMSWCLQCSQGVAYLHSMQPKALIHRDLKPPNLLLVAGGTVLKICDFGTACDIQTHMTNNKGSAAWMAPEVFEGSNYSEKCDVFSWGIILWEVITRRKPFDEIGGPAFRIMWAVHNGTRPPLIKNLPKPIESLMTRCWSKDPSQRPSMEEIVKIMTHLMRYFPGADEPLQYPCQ
MAP3K7, sequence (Q15750 437-504 partner limits assumed, species assumed): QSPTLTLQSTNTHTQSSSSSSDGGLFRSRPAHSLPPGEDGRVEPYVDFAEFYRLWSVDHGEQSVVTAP

INSRR = INSRR (Homo sapiens, UniProt P14616); experiment: Kinase selectivity screen; conditions: read-out: % Inhibition INSRR
FYN = FYN (Homo sapiens, UniProt P06241); experiment: Kinase selectivity screen; conditions: read-out: % Inhibition FYN
FYN, sequence (P06241 whole entry, species assumed): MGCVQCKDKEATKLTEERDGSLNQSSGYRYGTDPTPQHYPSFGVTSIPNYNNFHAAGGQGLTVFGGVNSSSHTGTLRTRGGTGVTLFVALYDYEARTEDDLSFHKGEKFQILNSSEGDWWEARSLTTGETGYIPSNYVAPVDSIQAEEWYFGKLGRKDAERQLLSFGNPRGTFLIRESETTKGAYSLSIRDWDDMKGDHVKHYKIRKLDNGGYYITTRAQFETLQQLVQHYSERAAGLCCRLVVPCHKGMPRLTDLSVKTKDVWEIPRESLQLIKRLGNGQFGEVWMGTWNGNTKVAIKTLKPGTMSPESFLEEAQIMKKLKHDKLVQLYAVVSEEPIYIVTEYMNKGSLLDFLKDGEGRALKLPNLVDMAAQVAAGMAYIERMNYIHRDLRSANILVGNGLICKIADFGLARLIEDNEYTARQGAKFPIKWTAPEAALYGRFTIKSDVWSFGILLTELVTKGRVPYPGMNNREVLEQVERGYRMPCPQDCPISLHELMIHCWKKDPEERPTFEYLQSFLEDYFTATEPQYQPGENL

MARK1 = MARK1 (Homo sapiens, UniProt Q9P0L2); experiment: Kinase selectivity screen; conditions: read-out: % Inhibition MARK1
PIP5K1A = PIP5K1A (Homo sapiens, UniProt Q99755); experiment: Kinase selectivity screen; conditions: read-out: % Inhibition PIP5K1A
MET = MET (Homo sapiens, UniProt P08581); experiment: Kinase selectivity screen; conditions: read-out: % Inhibition MET
MET, sequence (P08581 25-1390): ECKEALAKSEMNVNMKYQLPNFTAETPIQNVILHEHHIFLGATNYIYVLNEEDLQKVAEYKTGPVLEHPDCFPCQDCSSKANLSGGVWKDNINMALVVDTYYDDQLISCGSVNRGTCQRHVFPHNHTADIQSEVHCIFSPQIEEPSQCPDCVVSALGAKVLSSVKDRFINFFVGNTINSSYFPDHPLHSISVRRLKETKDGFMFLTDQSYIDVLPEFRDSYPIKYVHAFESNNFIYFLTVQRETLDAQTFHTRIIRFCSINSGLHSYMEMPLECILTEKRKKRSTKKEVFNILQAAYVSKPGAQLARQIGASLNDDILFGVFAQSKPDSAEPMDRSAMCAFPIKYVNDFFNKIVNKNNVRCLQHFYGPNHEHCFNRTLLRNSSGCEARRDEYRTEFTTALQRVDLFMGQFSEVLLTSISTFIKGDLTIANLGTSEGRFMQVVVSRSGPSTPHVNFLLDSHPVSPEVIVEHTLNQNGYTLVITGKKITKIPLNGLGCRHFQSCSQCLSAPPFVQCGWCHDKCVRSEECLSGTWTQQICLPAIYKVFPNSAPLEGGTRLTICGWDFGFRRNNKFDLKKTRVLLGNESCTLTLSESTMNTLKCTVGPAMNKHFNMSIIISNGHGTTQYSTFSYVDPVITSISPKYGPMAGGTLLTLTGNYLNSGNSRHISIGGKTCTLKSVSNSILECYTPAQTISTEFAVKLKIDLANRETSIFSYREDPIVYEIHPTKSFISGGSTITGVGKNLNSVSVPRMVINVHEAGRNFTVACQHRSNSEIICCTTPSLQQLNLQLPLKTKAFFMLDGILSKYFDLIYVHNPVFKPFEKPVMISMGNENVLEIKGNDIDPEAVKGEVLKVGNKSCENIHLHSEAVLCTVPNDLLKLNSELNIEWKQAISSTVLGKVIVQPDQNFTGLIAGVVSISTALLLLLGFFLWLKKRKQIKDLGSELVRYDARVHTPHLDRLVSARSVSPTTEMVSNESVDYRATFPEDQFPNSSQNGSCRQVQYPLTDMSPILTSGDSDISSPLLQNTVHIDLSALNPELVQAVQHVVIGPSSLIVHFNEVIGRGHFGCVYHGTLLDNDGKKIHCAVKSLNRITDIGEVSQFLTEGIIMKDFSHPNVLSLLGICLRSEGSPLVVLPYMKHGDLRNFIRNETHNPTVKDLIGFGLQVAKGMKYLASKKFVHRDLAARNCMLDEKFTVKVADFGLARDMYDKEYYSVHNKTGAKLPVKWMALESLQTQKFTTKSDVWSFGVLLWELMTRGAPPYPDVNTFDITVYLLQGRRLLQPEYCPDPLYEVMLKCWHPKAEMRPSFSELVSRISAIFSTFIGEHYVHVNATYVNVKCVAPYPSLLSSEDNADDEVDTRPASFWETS

PLK1 = PLK1 (Homo sapiens, UniProt P53350); experiment: Kinase selectivity screen; conditions: read-out: % Inhibition PLK1
PAK1 = PAK1 (Homo sapiens, UniProt Q13153); experiment: Kinase selectivity screen; conditions: read-out: % Inhibition PAK1
GSK3A = GSK3A (Homo sapiens, UniProt P49840); experiment: Kinase selectivity screen; conditions: read-out: % Inhibition GSK3A
KIT = KIT (Homo sapiens, UniProt P10721); experiment: Kinase selectivity screen; conditions: read-out: % Inhibition KIT
EPHA5 = EPHA5 (Homo sapiens, UniProt P54756); experiment: Kinase selectivity screen; conditions: read-out: % Inhibition EPHA5
MINK1 = MINK1 (Homo sapiens, UniProt Q8N4C8); experiment: Kinase selectivity screen; conditions: read-out: % Inhibition MINK1
PRKCQ = PRKCQ (Homo sapiens, UniProt Q04759); experiment: Kinase selectivity screen; conditions: read-out: % Inhibition PRKCQ
PIP5K1C = PIP5K1C (Homo sapiens, UniProt O60331); experiment: Kinase selectivity screen; conditions: read-out: % Inhibition PIP5K1C
FGFR3 = FGFR3 (Homo sapiens, UniProt P22607); experiment: Kinase selectivity screen; conditions: read-out: % Inhibition FGFR3
AXL = AXL (Homo sapiens, UniProt P30530); experiment: Kinase selectivity screen; conditions: read-out: % Inhibition AXL
PRKG1 = PRKG1 (Homo sapiens, UniProt Q13976); experiment: Kinase selectivity screen; conditions: read-out: % Inhibition PRKG1
AURKB = AURKB (Homo sapiens, UniProt Q96GD4); experiment: Kinase selectivity screen; conditions: read-out: % Inhibition AURKB
Full-length human MNK1 = Full-length human MNK1 (Homo sapiens, UniProt Q9BUB5, T385D); experiment: MNK1 biochemical IC50 assay (Caliper mobility shift)
Full-length human MNK1, sequence (Q9BUB5 1-424 isoform Q9BUB5-2 T344D): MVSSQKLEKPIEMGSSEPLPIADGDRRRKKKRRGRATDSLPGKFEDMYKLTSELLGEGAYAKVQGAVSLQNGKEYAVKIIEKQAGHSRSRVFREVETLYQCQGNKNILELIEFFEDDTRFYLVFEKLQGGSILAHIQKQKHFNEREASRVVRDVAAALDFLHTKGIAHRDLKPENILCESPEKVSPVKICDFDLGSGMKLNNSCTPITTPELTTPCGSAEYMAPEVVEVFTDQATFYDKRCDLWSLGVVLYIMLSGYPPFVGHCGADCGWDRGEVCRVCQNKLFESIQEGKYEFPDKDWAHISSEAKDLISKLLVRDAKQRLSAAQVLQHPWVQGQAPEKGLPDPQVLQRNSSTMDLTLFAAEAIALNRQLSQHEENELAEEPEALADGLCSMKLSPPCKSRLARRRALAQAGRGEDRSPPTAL

MKNK2, sequence (Q9HBH9 whole entry, species assumed): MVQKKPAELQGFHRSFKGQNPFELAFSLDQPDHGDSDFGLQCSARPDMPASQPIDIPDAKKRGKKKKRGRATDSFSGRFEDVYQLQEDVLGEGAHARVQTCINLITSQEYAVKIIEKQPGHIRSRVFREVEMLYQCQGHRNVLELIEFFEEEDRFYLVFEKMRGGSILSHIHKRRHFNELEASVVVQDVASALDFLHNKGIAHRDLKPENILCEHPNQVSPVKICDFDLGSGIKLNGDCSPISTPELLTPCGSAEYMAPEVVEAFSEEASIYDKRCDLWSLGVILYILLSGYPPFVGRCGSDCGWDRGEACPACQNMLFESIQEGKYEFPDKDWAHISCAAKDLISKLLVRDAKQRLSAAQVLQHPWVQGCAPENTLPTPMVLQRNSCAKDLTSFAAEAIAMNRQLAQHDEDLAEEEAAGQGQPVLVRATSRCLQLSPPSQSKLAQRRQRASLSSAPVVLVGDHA

## CC(C)Oc1cc(F)ccc1Nc1ncnc2cc(C(=O)NCCCN(C)C)n(C)c12 [Example 40, N-[3-(dimethylamino)propyl]-4-{[4-fluoro-2-(propan-2-yloxy)phenyl]amino}-5-methyl-5H-pyrrolo[3,2-d]pyrimidine-6-carboxamide]
MKNK2
  inhibition at 1 µM: 84%
PTK2
  inhibition at 1 µM: 7%
PTK6
  inhibition at 1 µM: 0%
RPS6KA1
  inhibition at 1 µM: 0%
MAP3K9
  inhibition at 1 µM: 0%
PIK3CB
  inhibition at 1 µM: 1%
PIK3CD
  inhibition at 1 µM: 2%
ULK2
  inhibition at 1 µM: 0%
ABL2
  inhibition at 1 µM: 0%
INSR
  inhibition at 1 µM: 0%
DMPK
  inhibition at 1 µM: 0%
IKBKB
  inhibition at 1 µM: 0%
CAMK2B
  inhibition at 1 µM: 14%
JAK2
  inhibition at 1 µM: 0%
LYN
  inhibition at 1 µM: 11%
MAPKAPK2
  inhibition at 1 µM: 0%
MAP3K7
  inhibition at 1 µM: 5%
INSRR
  inhibition at 1 µM: 0%
FYN
  inhibition at 1 µM: 0%
MARK1
  inhibition at 1 µM: 0%
PIP5K1A
  inhibition at 1 µM: 2%
MET
  inhibition at 1 µM: 13%
PLK1
  inhibition at 1 µM: 0%
PAK1
  inhibition at 1 µM: 0%
GSK3A
  inhibition at 1 µM: 0%
KIT
  inhibition at 1 µM: 2%
EPHA5
  inhibition at 1 µM: 0%
MINK1
  inhibition at 1 µM: 0%
PRKCQ
  inhibition at 1 µM: 0%
PIP5K1C
  inhibition at 1 µM: 6%
FGFR3
  inhibition at 1 µM: 10%
AXL
  inhibition at 1 µM: 0%
PRKG1
  inhibition at 1 µM: 0%
AURKB
  inhibition at 1 µM: 14%
Full-length human MNK1
  IC50: 50.1 nM
